Experimental data published in article PMC12764431 (Nature immunology, 2025).

Experiments:
[1] = tested on: dendritic cells (DCs) pulsed with InsB9–23; assay: MHC-II; format: cell-based, NOD mice; conditions: InsB9–23-pulsed DCs, TNFα or TNFα plus NAC; three independent peptidomes
[2] = tested on: MIN6 cells and B6 mouse islets; assay: Granule-based antigen presentation; format: cell-based; conditions: MIN6 cells stimulated with TNFα; for S5 T cell responses to crinosome fractions from TNFα-treated MIN6 cells: with or without glutathione or TUDCA, n = 6
[3] = tested on: InsB9–23(C19S)-specific T cell hybridomas; assay: Responses of InsB9–23; format: cell-based, NOD mice; conditions: C3.g7 cells pulsed with peptides, 0.3 μM; n = 6 hybridomas
MHC-II = conditions: cited from earlier work
soluble I-A^g7 molecules = assay: Biochemical competitive binding assay; parameters: species or system mouse; conditions: soluble I-A^g7, Extended Data Fig. 3c,d, n = 2
[4] = tested on: S5 CD4^+ T cell hybridoma; assay: Response of the S5 CD4+ T cell hybridoma to synthetic peptides; format: cell-based, NOD mice; conditions: serially diluted peptide, IL-2 production
[5] = tested on: 9B9 CD4^+ T cell hybridoma; assay: Response of the 9B9 CD4+ T cell hybridoma to synthetic peptides; format: cell-based, NOD mice; conditions: serially diluted peptide, IL-2 production
[6] = tested on: islet and pancreatic lymph node cells; assay: IFNγ ELISPOT, antigen recall of pooled islet and pancreatic lymph node cells; format: cell-based; conditions: cells pooled from islets and pancreatic lymph nodes of 8-week-old female NOD mice, peptide 1 μM; n = 4
[7] = tested on: MIN6 cells and B6 mouse islets; assay: β cell death and total granule protein after tunicamycin; format: cell-based; conditions: tunicamycin 2 h, followed by extensive washing

Compound: CC(=O)N[C@@H](CS)C(=O)O [NAC, N-acetylcysteine]
- InsB9–23(C19S) peptide in the DC I-A^g7 peptidome [1]: reduced

Compound: C[C@H](CCC(=O)NCCS(=O)(=O)O)[C@H]1CC[C@H]2[C@@H]3[C@@H](O)C[C@@H]4C[C@H](O)CC[C@]4(C)[C@H]3CC[C@]12C [TUDCA, tauroursodeoxycholic acid]
- S5 T cell responses to crinosome fractions from TNFα-treated MIN6 cells [2]: inhibited

Compound: N[C@@H](CCC(=O)N[C@@H](CS)C(=O)NCC(=O)O)C(=O)O [glutathione]
- S5 T cell responses to crinosome fractions from TNFα-treated MIN6 cells [2]: inhibited

Compound: EALYLVSGE [Nested InsB13-21(C19S)]
- Recognition of register peptides by InsB9–23(C19S)-specific T cell hybridomas [3]: only a few recognizing

Compound: GDLQTLALEVARE [CP1d]
- MHC-II binding relative to the native C-peptide (MHC-II): ~ 45 fold

Compound: InsB12–20(C19A): surrogate InsB12–20 peptide with C19A
- Binding to I-A^g7 compared to native counterparts (soluble I-A^g7 molecules): similarly reduced binding

Compound: SHLVEALALVCGERG [InsB9–23(Y16A)]
- Response of the S5 T cell hybridoma to peptide [4]: failed to respond at any peptide concentration
- Response of the 9B9 T cell hybridoma to peptide [5]: did not respond

Compound: SHLVEALYLVCGERG [InsB9–23]
- IFNγ production by ELISPOT during antigen recall [6]: induced IFNγ production

Compound: SHLVEALYLVSGERG [InsB9–23(C19S)]
- Response of the S5 T cell hybridoma to peptide [4]: responded robustly
- IFNγ production by ELISPOT during antigen recall [6]: triggered even higher responses
- Response of the 9B9 T cell hybridoma to peptide [5]: minimal reactivity

Compound: TNFα
- InsB9–23(C19S) peptide in the DC I-A^g7 peptidome [1]: appeared
- Native InsB9–23 levels (9B9 T cell responses), TNFα-treated MIN6 cells [2]: did not affect
- S5 T cell responses to crinosome fractions from TNFα-treated MIN6 cells [2]: significant increase

Compound: tunicamycin
- β cell death [7]: did not cause β cell death
